# Article PMC12655527, “An Investigational Study on the Role of ADME Agents’ Genetic Variation on DD217 Pharmacokinetics and Safety Profile” (Pharmaceuticals, 2025)
# Tests used:
# [1] = system: patients undergoing knee replacement surgery; test: Thromboembolic complications (DVT/PE) during 14-day therapy, phase II trial; assay type: in vivo, human; conditions: for With DVT/PE / Without DVT/PE: 40 mg/day, number of patients; for cases of DVT/PE / PE/DVT, n (safety outcomes): 14 days
# From the text: (§1) The design, eligibility criteria, and outcomes of the phase II clinical trial evaluating the safety and tolerability of DD217 (NCT05189002, ClinicalTrials.gov) have been described previously. Briefly, this was a multicenter, double-blind, randomized, prospective phase II study designed to determine the optimal dosing regimen and to assess the safety and efficacy of DD217 for the prevention of venous thromboembolism (VTE) in patients undergoing knee replacement surgery. Patients were randomized into one of three groups: two groups received oral DD217 at doses of 40 mg or 60 mg once daily, starting on the morning of the first postoperative day, and one group received the active comparator, dalteparin sodium. The treatment duration was 14 days.
# (§2) In total, seven cases of DVT/PE were documented during the trial: four in the DD217 40 mg/day group, one in the DD217 60 mg/day group, and two in the dalteparin sodium group. In addition, two bleeding events were recorded: one clinically relevant non-major bleed in the DD217 60 mg/day group and one clinically non-relevant minor bleed in the dalteparin sodium group.
# [2] = system: patients undergoing knee replacement surgery; test: Bleeding events during 14-day therapy, phase II trial; assay type: in vivo, human; conditions: for Bleeding, n (safety outcomes): 14 days
# From the text: as §1, §2
# [3] = DD217 40 mg/day oral, of 16 patients
# [4] = DD217 60 mg/day oral, of 18 patients
smiles,measurement,setting,value
"CC(=N)N(C)c1ccc(C(=O)Nc2ccc(C)cc2C(=O)Nc2ccc(Cl)cn2)cc1.Cl [DD217, N-(5-chloropyridin-2-yl)-5-methyl-2-[4-(N-methylacetimidamido)benzamido]benzamide hydrochloride]",With DVT/PE,[1]; ABCB1 rs1045642 C/C (n 5),3
same,Without DVT/PE,[1]; ABCB1 rs1045642 C/C (n 5),2
same,With DVT/PE,[1]; ABCB1 rs1045642 T/C (n 7),1
same,Without DVT/PE,[1]; ABCB1 rs1045642 T/C (n 7),6
same,With DVT/PE,[1]; ABCB1 rs1045642 T/T (n 4),0
same,Without DVT/PE,[1]; ABCB1 rs1045642 T/T (n 4),4
same,With DVT/PE,[1]; ABCB1 rs1128503 C/C (n 8),3
same,Without DVT/PE,[1]; ABCB1 rs1128503 C/C (n 8),5
same,With DVT/PE,[1]; ABCB1 rs1128503 C/T (n 6),1
same,Without DVT/PE,[1]; ABCB1 rs1128503 C/T (n 6),5
same,With DVT/PE,[1]; ABCB1 rs1128503 T/T (n 2),0
same,Without DVT/PE,[1]; ABCB1 rs1128503 T/T (n 2),2
same,With DVT/PE,[1]; ABCB1 rs2032582 G/G (n 8),3
same,Without DVT/PE,[1]; ABCB1 rs2032582 G/G (n 8),5
same,With DVT/PE,[1]; ABCB1 rs2032582 G/T (n 6),1
same,Without DVT/PE,[1]; ABCB1 rs2032582 G/T (n 6),5
same,With DVT/PE,[1]; ABCB1 rs2032582 T/T (n 2),0
same,Without DVT/PE,[1]; ABCB1 rs2032582 T/T (n 2),2
same,With DVT/PE,[1]; ABCB1 rs4148738 C/C (n 2),0
same,Without DVT/PE,[1]; ABCB1 rs4148738 C/C (n 2),2
same,With DVT/PE,[1]; ABCB1 rs4148738 T/C (n 6),1
same,Without DVT/PE,[1]; ABCB1 rs4148738 T/C (n 6),5
same,With DVT/PE,[1]; ABCB1 rs4148738 T/T (n 8),3
same,Without DVT/PE,[1]; ABCB1 rs4148738 T/T (n 8),5
same,cases of DVT/PE,[1]; DD217 40 mg/day group (n = 16),four
same,"PE/DVT, n (safety outcomes)",[1]; [3],4 n
same,cases of DVT/PE,[1]; DD217 60 mg/day group (n = 18),one
same,"PE/DVT, n (safety outcomes)",[1]; [4],1 n
same,"Bleeding, n (safety outcomes)",[2]; [3],0 n
same,bleeding events,"[2]; DD217 60 mg/day group, clinically relevant non-major bleed",one
same,"Bleeding, n (safety outcomes)",[2]; [4],1 n
